The source of these data is article PMC12026006, “Phosphodiesterase Inhibition and Immunotropic Activity of Dipyridamole Dynamic Derivatives” (Current Issues in Molecular Biology, 2025).

The experiment deals with T1, cAMP-phosphodiesterase (PDE).
T1 construct: gene PDE1A; enzyme of commercial Abcam colorimetric PDE kit
In words: colorimetric PDE activity kit ab139460, plate reader […] nm. The class given is biochemical. The note with it: two-range dilution, measuring error 10%, isoenzyme not told, read-out: IC50 **^1.

Structures are written as SMILES. Read-outs that look alike come from different tables or passages of the source.

The IC50 is the midpoint of a concentration-inhibition curve. Turning to `CC(C)Cn1c(=O)n(C)c(=O)c2[nH]cnc21` [compound 11, 3-isobutyl-1-methylxanthine], the IC50 (control from kit) was 5 µM.

Consider `OCCN(CCO)c1nc(N2CCCCC2)c2nc(N(CCO)CCO)nc(N3CCCCC3)c2n1` [10 (D10), 2,6-bis-diethanolamino-4,8-dipiperidinopyrimido(5,4-d)-pyrimidine], for which the IC50 came to 5 µM.
